Measured values taken from patent US9555038B2, “Heterocycle-substituted tetracyclic compounds and methods of use thereof for the treatment of viral diseases” (Merck Sharp & Dohme Corp., priority 2013, dated 2017).
Like-named read-outs stand apart in the source and are kept apart here.

Tests used:
[1] = tested on: HCV replicon 2B; assay: Cell-based HCV Replicon Assay A, replicon 2B
Procedure, shortened: (§1)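 2000 cells/well; 10 serial dilutions, top concentration 333.3 nM to 1.667 nM; 0.5% DMSO, 5% FBS; 3 days; lysis; multiplex TaqMan RT-PCR (NS5B/Neo plus cyclophilin), RNA from linear Ct standard curves.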

[2] = tested on: HCV replicon 1AY93H; assay: Cell-based HCV Replicon Assay A, replicon 1AY93H
Procedure, shortened: as §1

[3] = tested on: HCV replicon 1AQ30D; assay: Cell-based HCV Replicon Assay B, replicon 1AQ30D
Procedure, shortened: (§2)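 EC50 defined as the drug concentration giving a CT increase of 1 above projected baseline, from real-time RT-PCR of replicon RNA using genotype-specific primers and probes. Cells were seeded in 5% FBS, dosed after 24 h and incubated 3 days before lysis.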

[4] = tested on: HCV replicon 1B; assay: Cell-based HCV Replicon Assay B, replicon 1B
Procedure, shortened: as §2

[5] = tested on: HCV replicon 1A; assay: Cell-based HCV Replicon Assay A, replicon 1A
Procedure, shortened: as §1

[6] = replicon 1AY93H, read-out: 1A Y93H IC50
[7] = replicon 1AQ30D, read-out: 1A Q30D IC50
[8] = read-out: 1A Y93H IC50, replicon 1AY93H
[9] = read-out: 1A Q30D IC50, replicon 1AQ30D
[10] = Hepatitis C virus, read-out: 1A Q30D IC50 (nM), replicon 1AQ30D

Structure (SMILES) | IC50 ([1]; replicon 2B, read-out: 2B IC50) [nM] | IC50 [2, 6] [pM] | IC50 [3, 7] [nM] | IC50 [4] [pM] | IC50 [5] [pM] | IC50 ([1]; read-out: 2B IC50, replicon 2B) [nM] | IC50 [2, 8] [pM] | IC50 [3, 9] [nM] | IC50 ([4]; Hepatitis C virus) [pM] | IC50 ([5]; Hepatitis C virus) [pM] | IC50 ([1]; Hepatitis C virus, read-out: 2B IC50 (nM), replicon 2B) [nM] | IC50 [3, 10] [nM]
COC(=O)NC(C(=O)N1[C@@H]2C[C@@H]2C[C@H]1c1ncc(-c2ccc3c(c2)cc2n3C(c3cnc(CC(C)C)s3)Oc3cc(-c4cnc([C@@H]5CCCN5C(=O)[C@@H](NC(=O)OC)C(C)C)[nH]4)cc(F)c3-2)[nH]1)C1CCOC(C)(C)C1 (single isomer, unassigned) [Compound 438] | 0.006 | 4 | 0.03 | 3.7 | 3.6 |  |  |  |  |  |  | 
COC(=O)NC(C(=O)N1[C@@H]2C[C@@H]2C[C@H]1c1ncc(-c2ccc3c(c2)cc2n3C(c3cnc(CC(C)C)s3)Oc3cc(-c4cnc([C@@H]5CCCN5C(=O)[C@@H](NC(=O)OC)C(C)C)[nH]4)cc(F)c3-2)[nH]1)C1CCOC(C)(C)C1 (single isomer, unassigned) [Compound 439] | 0.006 | 4 | 0.018 | 2.1 | 2.7 |  |  |  |  |  |  | 
COC(=O)NC(C(=O)N1[C@@H]2C[C@@H]2C[C@H]1c1ncc(-c2ccc3c(c2)cc2n3C(c3cnc(CC(C)C)s3)Oc3cc(-c4cnc([C@@H]5CCCN5C(=O)[C@@H](NC(=O)OC)C(C)C)[nH]4)cc(F)c3-2)[nH]1)C1C[C@@H](C)O[C@@H](C)C1 (single isomer, unassigned) [Compound 440] |  |  |  |  |  | 0.32 | 146 | 0.967 | 3.6 | 2.3 |  | 
COC(=O)NC(C(=O)N1[C@@H]2C[C@@H]2C[C@H]1c1ncc(-c2ccc3c(c2)cc2n3C(c3cnc(CC(C)C)s3)Oc3cc(-c4cnc([C@@H]5CCCN5C(=O)[C@@H](NC(=O)OC)C(C)C)[nH]4)cc(F)c3-2)[nH]1)C1C[C@@H](C)O[C@@H](C)C1 (single isomer, unassigned) [Compound 441] |  |  |  | 3.4 | 2.5 | 0.006 | 3 | 0.011 |  |  |  | 
CCC(CC)c1ncc(C2Oc3cc(-c4cnc([C@@H]5CCCN5C(=O)[C@@H](NC(=O)OC)C(C)C)[nH]4)cc(F)c3-c3cc4cc(-c5cnc([C@@H]6CCCN6C(=O)C(NC(=O)OC)C6CCOC(C)(C)C6)[nH]5)ccc4n32)s1 (single isomer, unassigned) [Compound 444] |  |  |  |  |  | 0.007 | 5 | 0.038 | 3.8 | 2.2 |  | 
CCC(CC)c1ncc(C2Oc3cc(-c4cnc([C@@H]5CCCN5C(=O)[C@@H](NC(=O)OC)C(C)C)[nH]4)cc(F)c3-c3cc4cc(-c5cnc([C@@H]6CCCN6C(=O)C(NC(=O)OC)C6CCOC(C)(C)C6)[nH]5)ccc4n32)s1 (single isomer, unassigned) [Compound 445] |  |  |  | 4.6 | 2.8 | 0.096 | 107 | 0.949 |  |  |  | 
COC(=O)NC(C(=O)N1CCC[C@H]1c1ncc(-c2ccc3c(c2)cc2n3C(c3cnc(C4(C)CCCC4)s3)Oc3cc(-c4cnc([C@@H]5CCCN5C(=O)[C@@H](NC(=O)OC)C(C)C)[nH]4)cc(F)c3-2)[nH]1)C1CCOC(C)(C)C1 (single isomer, unassigned) [Compound 446] |  |  |  |  |  | 0.005 | 4 | 0.034 | 3.4 | 1.8 |  | 
COC(=O)NC(C(=O)N1CCC[C@H]1c1ncc(-c2ccc3c(c2)cc2n3C(c3cnc(C4(C)CCCC4)s3)Oc3cc(-c4cnc([C@@H]5CCCN5C(=O)[C@@H](NC(=O)OC)C(C)C)[nH]4)cc(F)c3-2)[nH]1)C1CCOC(C)(C)C1 (single isomer, unassigned) [Compound 447] |  |  |  | 3.3 | 2.8 | 0.059 | 259 | 0.607 |  |  |  | 
COC(=O)NC(C(=O)N1CCC[C@H]1c1ncc(-c2ccc3c(c2)cc2n3C(c3cnc(C4CCOCC4)s3)Oc3cc(-c4cnc([C@@H]5CCCN5C(=O)[C@@H](NC(=O)OC)C(C)C)[nH]4)cc(F)c3-2)[nH]1)C1CCOC(C)(C)C1 (single isomer, unassigned) [Compound 448] |  |  |  |  |  | 0.011 | 13 | 0.113 | 6 | 4.7 |  | 
COC(=O)NC(C(=O)N1CCC[C@H]1c1ncc(-c2ccc3c(c2)cc2n3C(c3cnc(C4CCOCC4)s3)Oc3cc(-c4cnc([C@@H]5CCCN5C(=O)[C@@H](NC(=O)OC)C(C)C)[nH]4)cc(F)c3-2)[nH]1)C1CCOC(C)(C)C1 (single isomer, unassigned) [Compound 449] |  |  |  | 3.4 | 4.3 | 0.044 | 64 | 0.737 |  |  |  | 
COC(=O)N[C@H](C(=O)N1CCC[C@H]1c1ncc(-c2cc(F)c3c(c2)OC(c2cnc(C4(C)CC4)s2)n2c-3cc3cc(-c4cnc([C@@H]5C[C@H]6C[C@H]6N5C(=O)[C@@H](NC(=O)OC)C(C)C)[nH]4)ccc32)[nH]1)C(C)C (single isomer, unassigned) [Compound 452] |  |  |  |  |  | 0.04 | 4 | 0.093 | 2.5 | 2.7 |  | 
COC(=O)N[C@H](C(=O)N1CCC[C@H]1c1ncc(-c2cc(F)c3c(c2)OC(c2cnc(C4(C)CC4)s2)n2c-3cc3cc(-c4cnc([C@@H]5C[C@H]6C[C@H]6N5C(=O)[C@@H](NC(=O)OC)C(C)C)[nH]4)ccc32)[nH]1)C(C)C (single isomer, unassigned) [Compound 453] |  |  |  | 2 | 2.3 | 0.65 | 210 | 2.14 |  |  |  | 
COC(=O)N[C@H](C(=O)N1CCC[C@H]1c1ncc(-c2cc(F)c3c(c2)OC(c2cnc(C4(C)CCCC4)s2)n2c-3cc3cc(-c4cnc([C@@H]5C[C@H]6C[C@H]6N5C(=O)[C@@H](NC(=O)OC)C(C)C)[nH]4)ccc32)[nH]1)C(C)C (single isomer, unassigned) [Compound 454] |  |  |  |  |  |  | 2 |  | 3.1 | 2.3 | 0.052 | 0.047
COC(=O)NC(C(=O)N1CCC[C@H]1c1ncc(-c2ccc3c(c2)cc2n3C(c3cnc(C4(C)CC4)s3)Oc3cc(-c4cnc([C@@H]5CCCN5C(=O)[C@@H](NC(=O)OC)C(C)C)[nH]4)cc(F)c3-2)[nH]1)C1CCOC(C)(C)C1 (single isomer, unassigned) [Compound 457] |  |  |  |  |  | 0.005 | 7 | 0.07 | 3.6 | 3.3 |  | 
COC(=O)NC(C(=O)N1CCC[C@H]1c1ncc(-c2ccc3c(c2)cc2n3C(c3cnc(C4(C)CC4)s3)Oc3cc(-c4cnc([C@@H]5CCCN5C(=O)[C@@H](NC(=O)OC)C(C)C)[nH]4)cc(F)c3-2)[nH]1)C1CCOC(C)(C)C1 (single isomer, unassigned) [Compound 458] |  |  |  | 3.5 | 3 | 0.007 | 7 | 0.024 |  |  |  | 
COC(=O)NC(C(=O)N1CCC[C@H]1c1ncc(-c2ccc3c(c2)cc2n3C(c3cnc(C4(C)CC4)s3)Oc3cc(-c4cnc([C@@H]5CCCN5C(=O)[C@@H](NC(=O)OC)C(C)C)[nH]4)cc(F)c3-2)[nH]1)C1C[C@@H](C)O[C@@H](C)C1 (single isomer, unassigned) [Compound 462] |  |  |  | 3.1 | 3.5 | 0.007 | 7 |  |  |  |  | 0.038
COC(=O)NC(C(=O)N1[C@@H]2C[C@@H]2C[C@H]1c1ncc(-c2ccc3c(c2)cc2n3C(c3cnc(C4(C)CC4)s3)Oc3cc(-c4cnc([C@@H]5CCCN5C(=O)[C@@H](NC(=O)OC)C(C)C)[nH]4)cc(F)c3-2)[nH]1)C1C[C@@H](C)O[C@@H](C)C1 (single isomer, unassigned) [Compound 463] |  |  |  |  |  | 0.007 | 2 | 0.012 | 2.8 | 2.6 |  | 
COC(=O)NC(C(=O)N1[C@@H]2C[C@@H]2C[C@H]1c1ncc(-c2ccc3c(c2)cc2n3C(c3cnc(C4(C)CC4)s3)Oc3cc(-c4cnc([C@@H]5CCCN5C(=O)[C@@H](NC(=O)OC)C(C)C)[nH]4)cc(F)c3-2)[nH]1)C1C[C@@H](C)O[C@@H](C)C1 (single isomer, unassigned) [Compound 464] |  |  |  | 3.4 | 2.8 | 0.282 | 197 | 1.23 |  |  |  | 
COC(=O)NC(C(=O)N1[C@@H]2C[C@@H]2C[C@H]1c1ncc(-c2ccc3c(c2)cc2n3C(c3cnc(C4(C)CC4)s3)Oc3cc(-c4cnc([C@@H]5CCCN5C(=O)[C@@H](NC(=O)OC)C(C)C)[nH]4)cc(F)c3-2)[nH]1)C1CCOC(C)(C)C1 (single isomer, unassigned) [Compound 465] |  |  |  |  |  | 0.005 | 2 | 0.022 | 3.9 | 2.7 |  | 
COC(=O)NC(C(=O)N1[C@@H]2C[C@@H]2C[C@H]1c1ncc(-c2ccc3c(c2)cc2n3C(c3cnc(C4(C)CC4)s3)Oc3cc(-c4cnc([C@@H]5CCCN5C(=O)[C@@H](NC(=O)OC)C(C)C)[nH]4)cc(F)c3-2)[nH]1)C1CCOC(C)(C)C1 (single isomer, unassigned) [Compound 466] |  |  |  | 3 | 2.7 | 0.005 | 2 | 0.015 |  |  |  | 
COC(=O)NC(C(=O)N1[C@@H]2C[C@@H]2C[C@H]1c1ncc(-c2ccc3c(c2)cc2n3C(c3cnc(C4(C)CC4)s3)Oc3cc(-c4cnc([C@@H]5CCCN5C(=O)[C@@H](NC(=O)OC)C(C)C)[nH]4)cc(F)c3-2)[nH]1)C1CCOC(C)(C)C1 (single isomer, unassigned) [Compound 467] |  |  |  | 3.4 | 3 | 0.158 | 209 | 1.4 |  |  |  | 
